Where two headings read alike, the source gives them in different places.
Tests used:
[1] = system: IL-2 stimulated pSTAT5 in Tall-1 T cells; assay: Cellular JAK3 potency assay: inhibition of IL-2 stimulated pSTAT5 in Tall-1 T cells; format: cell-based, human; settings: for IC50: Homo sapiens, read-out: Tall-1 (pIC50) (converted)
In short: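 In human Tall-1 T cells, IL-2 (300 ng/ml final, 30 min) drives STAT5 phosphorylation after a 1 h compound pretreatment. Lysates are assayed for pSTAT5 by AlphaLisa, and IC50 derived from signal versus concentration is expressed as pIC50.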

JAK2 = biological target: T1, JAK2 (Homo sapiens, UniProt O60674); assay: Biochemical JAK2 kinase assay (LanthaScreen); settings: for Ki: read-out: JAK 2 (pKi) (converted)
T1 construct: GST; purchased Life Technologies
T1 sequence (O60674 whole entry): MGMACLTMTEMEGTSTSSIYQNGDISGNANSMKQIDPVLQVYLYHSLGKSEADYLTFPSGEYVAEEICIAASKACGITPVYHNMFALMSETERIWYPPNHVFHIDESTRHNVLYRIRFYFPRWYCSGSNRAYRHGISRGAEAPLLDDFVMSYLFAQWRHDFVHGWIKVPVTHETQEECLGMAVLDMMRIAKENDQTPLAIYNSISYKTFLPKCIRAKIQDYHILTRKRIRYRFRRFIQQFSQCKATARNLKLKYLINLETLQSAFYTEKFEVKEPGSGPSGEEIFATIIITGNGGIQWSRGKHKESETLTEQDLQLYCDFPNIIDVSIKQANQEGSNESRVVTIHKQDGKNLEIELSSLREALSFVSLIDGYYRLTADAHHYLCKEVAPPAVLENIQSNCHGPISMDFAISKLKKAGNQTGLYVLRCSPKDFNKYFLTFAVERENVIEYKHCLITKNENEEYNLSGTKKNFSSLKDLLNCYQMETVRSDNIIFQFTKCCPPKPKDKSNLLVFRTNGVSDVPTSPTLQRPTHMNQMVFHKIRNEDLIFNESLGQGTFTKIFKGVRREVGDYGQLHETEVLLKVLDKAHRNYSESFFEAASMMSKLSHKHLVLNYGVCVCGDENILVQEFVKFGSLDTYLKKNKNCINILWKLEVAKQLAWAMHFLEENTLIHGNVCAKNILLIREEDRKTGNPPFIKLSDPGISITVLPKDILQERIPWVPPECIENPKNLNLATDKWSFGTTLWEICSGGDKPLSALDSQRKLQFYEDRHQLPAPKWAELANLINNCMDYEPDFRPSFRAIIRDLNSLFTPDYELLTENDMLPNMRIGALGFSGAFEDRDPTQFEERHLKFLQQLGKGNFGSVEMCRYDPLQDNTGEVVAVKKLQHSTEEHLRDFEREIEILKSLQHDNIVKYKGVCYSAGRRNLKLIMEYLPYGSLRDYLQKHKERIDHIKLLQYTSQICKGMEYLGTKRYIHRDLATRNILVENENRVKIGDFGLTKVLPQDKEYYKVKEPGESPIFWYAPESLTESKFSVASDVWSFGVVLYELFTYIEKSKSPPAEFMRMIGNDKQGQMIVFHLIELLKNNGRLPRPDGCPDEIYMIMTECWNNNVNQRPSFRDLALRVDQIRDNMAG
In short: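 GST-tagged recombinant JAK2 pre-incubated 1 h at ambient temperature with compound and GFP-STAT1 peptide in HEPES pH 7.5/MgCl2 buffer, then ATP added for a 1 h reaction with 1% DMSO. TR-FRET read after EDTA and Tb-anti-pSTAT1 (pTyr701) addition; IC50 from 4-parameter fit, converted to pKi by Cheng-Prusoff.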

JAK3 = biological target: T2, JAK3 (Homo sapiens, UniProt P52333); assay: Biochemical JAK3 kinase assay (LanthaScreen); set-up: GST; purchased Life Technologies; settings: for Ki: read-out: JAK 3 (pKi) (converted)
T2 sequence (P52333 1-1124): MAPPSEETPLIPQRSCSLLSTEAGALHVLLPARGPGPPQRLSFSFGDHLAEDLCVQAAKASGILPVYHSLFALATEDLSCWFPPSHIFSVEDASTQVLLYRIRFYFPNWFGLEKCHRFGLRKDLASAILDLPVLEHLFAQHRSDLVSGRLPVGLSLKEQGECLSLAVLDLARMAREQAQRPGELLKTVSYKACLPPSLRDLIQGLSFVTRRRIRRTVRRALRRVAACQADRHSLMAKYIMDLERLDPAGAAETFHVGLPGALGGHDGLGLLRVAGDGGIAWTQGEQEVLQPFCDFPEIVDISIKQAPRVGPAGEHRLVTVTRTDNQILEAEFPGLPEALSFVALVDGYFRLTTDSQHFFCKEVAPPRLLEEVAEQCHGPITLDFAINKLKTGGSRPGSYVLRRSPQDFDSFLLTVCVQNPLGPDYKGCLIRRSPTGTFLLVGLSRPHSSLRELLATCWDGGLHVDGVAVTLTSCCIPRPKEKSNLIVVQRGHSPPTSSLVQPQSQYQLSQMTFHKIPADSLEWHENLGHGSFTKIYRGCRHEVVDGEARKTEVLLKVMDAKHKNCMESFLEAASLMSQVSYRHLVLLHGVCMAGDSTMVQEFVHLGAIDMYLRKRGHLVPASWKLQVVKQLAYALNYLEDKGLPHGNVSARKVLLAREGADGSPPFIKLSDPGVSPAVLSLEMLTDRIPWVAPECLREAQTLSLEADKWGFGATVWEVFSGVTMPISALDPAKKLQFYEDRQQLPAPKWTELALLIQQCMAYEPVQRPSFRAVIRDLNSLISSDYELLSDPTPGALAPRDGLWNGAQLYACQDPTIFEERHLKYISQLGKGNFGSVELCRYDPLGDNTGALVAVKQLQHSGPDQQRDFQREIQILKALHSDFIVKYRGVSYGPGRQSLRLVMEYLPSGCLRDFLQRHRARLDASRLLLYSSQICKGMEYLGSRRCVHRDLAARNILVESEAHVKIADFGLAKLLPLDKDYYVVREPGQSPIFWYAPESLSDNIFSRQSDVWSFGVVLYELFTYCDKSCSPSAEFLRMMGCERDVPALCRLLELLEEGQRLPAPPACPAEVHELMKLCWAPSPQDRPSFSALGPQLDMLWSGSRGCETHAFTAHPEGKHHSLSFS
In short: (§1)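 Compounds were preincubated with the GST-tagged kinase and GFP-labelled STAT1 peptide for one hour before ATP initiated a one-hour reaction at ambient temperature. Phosphorylation was quantified by TR-FRET with a Tb-labelled pTyr701 antibody. Ki values were derived from IC50 using Cheng-Prusoff.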

JAK1 = biological target: T3, JAK1 (Homo sapiens, UniProt P23458); assay: Biochemical JAK1 kinase assay (LanthaScreen); settings: for Ki: read-out: JAK 1 (pKi) (converted)
T3 construct: GST; purchased Life Technologies
T3 sequence (P23458 whole entry): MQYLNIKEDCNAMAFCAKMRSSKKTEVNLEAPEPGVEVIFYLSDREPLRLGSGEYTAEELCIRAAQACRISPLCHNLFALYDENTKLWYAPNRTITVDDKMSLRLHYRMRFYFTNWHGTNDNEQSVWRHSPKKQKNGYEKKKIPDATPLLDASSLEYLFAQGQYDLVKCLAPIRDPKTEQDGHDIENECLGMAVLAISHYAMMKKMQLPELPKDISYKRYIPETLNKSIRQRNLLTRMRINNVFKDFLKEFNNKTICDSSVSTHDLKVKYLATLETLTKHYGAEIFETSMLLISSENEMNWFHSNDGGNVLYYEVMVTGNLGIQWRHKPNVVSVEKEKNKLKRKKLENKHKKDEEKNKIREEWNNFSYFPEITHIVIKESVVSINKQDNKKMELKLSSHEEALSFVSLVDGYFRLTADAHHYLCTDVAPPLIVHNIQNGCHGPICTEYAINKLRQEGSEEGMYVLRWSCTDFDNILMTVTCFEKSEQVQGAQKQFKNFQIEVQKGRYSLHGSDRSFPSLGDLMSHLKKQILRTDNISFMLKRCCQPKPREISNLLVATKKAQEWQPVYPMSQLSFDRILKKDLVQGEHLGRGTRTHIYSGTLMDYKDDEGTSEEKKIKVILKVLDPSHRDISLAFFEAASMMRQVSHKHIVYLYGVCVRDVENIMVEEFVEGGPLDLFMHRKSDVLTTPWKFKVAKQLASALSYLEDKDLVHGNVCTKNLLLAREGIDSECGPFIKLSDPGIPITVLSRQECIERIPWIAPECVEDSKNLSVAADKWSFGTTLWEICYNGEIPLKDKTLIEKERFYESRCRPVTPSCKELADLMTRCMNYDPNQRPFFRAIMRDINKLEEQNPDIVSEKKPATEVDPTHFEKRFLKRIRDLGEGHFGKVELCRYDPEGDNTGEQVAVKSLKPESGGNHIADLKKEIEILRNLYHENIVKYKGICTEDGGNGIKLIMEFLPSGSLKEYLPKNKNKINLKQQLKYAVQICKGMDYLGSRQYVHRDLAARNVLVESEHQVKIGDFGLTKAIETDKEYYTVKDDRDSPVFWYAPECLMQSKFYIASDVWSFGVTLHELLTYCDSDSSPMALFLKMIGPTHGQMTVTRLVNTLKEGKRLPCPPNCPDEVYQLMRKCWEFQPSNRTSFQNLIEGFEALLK
In short: as §1

Tyk2 = biological target: T4, Tyk2 (Homo sapiens, UniProt P29597); assay: Biochemical Tyk2 kinase assay (LanthaScreen); settings: for Ki: read-out: Tyk 2 (pKi) (converted)
T4 construct: GST; purchased Life Technologies
T4 sequence (P29597 whole entry): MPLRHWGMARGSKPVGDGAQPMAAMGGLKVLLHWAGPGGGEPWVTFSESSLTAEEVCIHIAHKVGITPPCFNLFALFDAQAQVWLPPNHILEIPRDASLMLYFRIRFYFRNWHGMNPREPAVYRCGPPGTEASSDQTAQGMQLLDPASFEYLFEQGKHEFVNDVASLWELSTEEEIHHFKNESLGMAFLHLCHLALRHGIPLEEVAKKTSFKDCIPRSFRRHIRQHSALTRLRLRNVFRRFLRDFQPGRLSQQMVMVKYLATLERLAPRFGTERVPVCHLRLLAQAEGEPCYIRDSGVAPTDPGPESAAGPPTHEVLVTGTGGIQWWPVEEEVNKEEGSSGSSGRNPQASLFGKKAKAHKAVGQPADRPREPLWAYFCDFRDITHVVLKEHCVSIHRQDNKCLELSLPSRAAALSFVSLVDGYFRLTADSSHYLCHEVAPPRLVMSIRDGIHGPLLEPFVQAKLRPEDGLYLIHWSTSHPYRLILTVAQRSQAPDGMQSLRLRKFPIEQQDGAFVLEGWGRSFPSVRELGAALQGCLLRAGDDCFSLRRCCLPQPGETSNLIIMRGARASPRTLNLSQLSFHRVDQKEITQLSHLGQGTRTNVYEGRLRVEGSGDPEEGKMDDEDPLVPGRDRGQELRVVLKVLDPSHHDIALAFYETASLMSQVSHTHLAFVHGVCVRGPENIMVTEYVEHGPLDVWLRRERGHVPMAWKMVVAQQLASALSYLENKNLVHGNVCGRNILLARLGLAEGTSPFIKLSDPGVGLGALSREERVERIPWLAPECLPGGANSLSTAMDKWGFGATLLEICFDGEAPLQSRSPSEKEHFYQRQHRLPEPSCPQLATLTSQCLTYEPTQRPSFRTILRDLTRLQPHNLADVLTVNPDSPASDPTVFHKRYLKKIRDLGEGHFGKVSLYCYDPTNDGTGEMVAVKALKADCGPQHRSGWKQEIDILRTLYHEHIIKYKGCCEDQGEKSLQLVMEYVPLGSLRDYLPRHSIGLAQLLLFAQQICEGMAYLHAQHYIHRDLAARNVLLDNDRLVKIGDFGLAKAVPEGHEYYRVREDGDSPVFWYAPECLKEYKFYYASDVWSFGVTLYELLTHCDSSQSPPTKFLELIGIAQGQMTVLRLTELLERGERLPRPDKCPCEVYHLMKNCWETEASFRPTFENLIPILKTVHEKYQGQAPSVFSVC
In short: as §1

[2] = IL-2 stimulated pSTAT5, Tall-1 T cells
[3] = selectivity JAK3 over JAK1, difference of pKi
[4] = TALL-1, IL-2 stimulated pSTAT5 in Tall-1 T cells
[5] = selectivity: difference of pKi JAK3 and pKi JAK1
[6] = TALL-1, IL-2 stimulated pSTAT5, Tall-1 T cells
[7] = IL-2 stimulated pSTAT5 in Tall-1 T cells

Row | Structure (SMILES) | Tall-1 (pIC50) [1, 2] | JAK 2 (pKi) (JAK2) | JAK 3 (pKi) (JAK3) | JAK3 (pKi)-JAK1 (pKi) (JAK3; [3]) | JAK 1 (pKi) (JAK1) | Tyk 2 (pKi) (Tyk2) | IC50 [1, 4] [nM] | Ki (JAK2) [nM] | Ki (JAK3) [nM] | JAK3 (pKi)-JAK1 (pKi) (JAK3; [5]) | Ki (JAK1) [nM] | Ki (Tyk2) [nM] | IC50 [1, 6] [nM] | Tall-1 (pIC50) [1, 7] | IC50 [1, 7] [nM]
1 | C=CC(=O)N1CC(Oc2cc(-c3ccc(O)c(F)c3)cc3[nH]ncc23)(C(F)F)C1 [Compound 5-22] | B (a pIC50 value between 6.7 (included) and 7.5 (IC50 between 200 nM and 32 nM)) | E (a pKi value of 7 or below (Ki of 100 nM or above)) | B (a pKi value between 9 and 10 (Ki between 1 nM and 0.1 nM)) | A (a value of 3 or above) | E (a pKi value of 7 or below (Ki of 100 nM or above)) | E (a pKi value of 7 or below (Ki of 100 nM or above)) | – | – | – | – | – | – | – | – | –
2 | C=CC(=O)N1CC(C)(COc2nc(-c3ccc(O)cc3)cc3[nH]ncc23)C1 [Compound 3-56] | – | – | – | – | – | – | < 31.6 | 10 to 100 | < 0.1 | A (a value of 3 or above) | > 100 | > 100 | – | – | –
3 | CN(C)C/C=C/C(=O)N1CC(COc2cc(-c3cc(F)c(O)cc3F)cc3[nH]ncc23)C1 [Compound 18-3] | – | – | – | B (a value of 2.3 to 3) | – | – | – | 10 to 100 | < 0.1 | – | 10 to 100 | > 100 | < 31.6 | – | –
4 | CN(C)C/C=C/C(=O)N1CC(C#N)(COc2nc(-c3ccc(O)c(Cl)c3)cc3[nH]ncc23)C1 [Compound 3-71] | – | E (a pKi value of 7 or below (Ki of 100 nM or above)) | A (a pKi value≥10 (Ki≤0.1 nM)) | – | E (a pKi value of 7 or below (Ki of 100 nM or above)) | E (a pKi value of 7 or below (Ki of 100 nM or above)) | – | – | – | A (a value of 3 or above) | – | – | – | A (a pIC50 value≥7.5 (IC50≤32 nM)) | –
5 | C=CC(=O)N1C[C@@H](C)O[C@@H](C(=O)Nc2cc(-c3ccc(O)cc3)cc3[nH]ncc23)C1 [Compound 12-61] | – | – | – | A (a value of 3 or above) | – | – | – | > 100 | < 0.1 | – | > 100 | > 100 | 31.6 to 200 | – | –
6 | C=CC(=O)N1CCC[C@H](Oc2cc(-c3ccc(O)c(Cl)c3)nc3[nH]ncc23)C1 [Compound 8-14] | B (a pIC50 value between 6.7 (included) and 7.5 (IC50 between 200 nM and 32 nM)) | E (a pKi value of 7 or below (Ki of 100 nM or above)) | A (a pKi value≥10 (Ki≤0.1 nM)) | A (a value of 3 or above) | E (a pKi value of 7 or below (Ki of 100 nM or above)) | E (a pKi value of 7 or below (Ki of 100 nM or above)) | – | – | – | – | – | – | – | – | –
7 | C=CC(=O)N1CCCC(Oc2nc(-c3ccc(O)cc3)cc3[nH]ncc23)C1 (stereo not drawn) [Compound 8-7] | B (a pIC50 value between 6.7 (included) and 7.5 (IC50 between 200 nM and 32 nM)) | D (a pKi value between 7 and 8 (Ki between 100 nM and 10 nM)) | B (a pKi value between 9 and 10 (Ki between 1 nM and 0.1 nM)) | A (a value of 3 or above) | E (a pKi value of 7 or below (Ki of 100 nM or above)) | E (a pKi value of 7 or below (Ki of 100 nM or above)) | – | – | – | – | – | – | – | – | –
8 | CCC1(COc2cc(-c3ccc(O)c(Cl)c3)nc3[nH]ncc23)CN(C(=O)/C=C/CN(C)C)C1 [Compound 3-68] | – | E (a pKi value of 7 or below (Ki of 100 nM or above)) | B (a pKi value between 9 and 10 (Ki between 1 nM and 0.1 nM)) | – | D (a pKi value between 7 and 8 (Ki between 100 nM and 10 nM)) | E (a pKi value of 7 or below (Ki of 100 nM or above)) | – | – | – | B (a value of 2.3 to 3) | – | – | – | C (a pIC50 value between 6 and 6.7 (IC50 between 1 μM and 200 nM)) | –
9 | C=CC(=O)N1CC(CSc2cc(-c3ccc(O)cc3)cc3[nH]ncc23)C1 [Compound 12-34] | – | – | – | B (a value of 2.3 to 3) | – | – | – | > 100 | 0.1 to 1 | – | > 100 | > 100 | < 31.6 | – | –
10 | CN(C)C/C=C/C(=O)N1CC(F)(COc2cc(-c3ccc(O)c(F)c3)cc3[nH]ncc23)C1 [Compound 3-40] | – | – | – | – | – | – | < 31.6 | 10 to 100 | < 0.1 | A (a value of 3 or above) | 0.1 to 1 | > 100 | – | – | –
11 | C=CC(=O)N1CC[C@H](Oc2cc(-c3ccc(O)c(F)c3)nc3[nH]nc(C)c23)C1 [Compound 1-33] | – | – | – | – | – | – | 31.6 to 200 | > 100 | 0.1 to 1 | A (a value of 3 or above) | > 100 | > 100 | – | – | –
12 | CN(C)C/C=C/C(=O)N1CC(F)(COc2nc(-c3ccc(O)c(F)c3)cc3[nH]ncc23)C1 [Compound 3-48] | – | D (a pKi value between 7 and 8 (Ki between 100 nM and 10 nM)) | A (a pKi value≥10 (Ki≤0.1 nM)) | – | D (a pKi value between 7 and 8 (Ki between 100 nM and 10 nM)) | E (a pKi value of 7 or below (Ki of 100 nM or above)) | – | – | – | A (a value of 3 or above) | – | – | – | A (a pIC50 value≥7.5 (IC50≤32 nM)) | –
13 | CCC1(COc2cc(-c3ccc(O)c(F)c3)cc3[nH]ncc23)CN(C(=O)/C=C/CN(C)C)C1 [Compound 3-17] | – | D (a pKi value between 7 and 8 (Ki between 100 nM and 10 nM)) | A (a pKi value≥10 (Ki≤0.1 nM)) | – | E (a pKi value of 7 or below (Ki of 100 nM or above)) | E (a pKi value of 7 or below (Ki of 100 nM or above)) | – | – | – | A (a value of 3 or above) | – | – | – | A (a pIC50 value≥7.5 (IC50≤32 nM)) | –
14 | C=CC(=O)N1CC(C#N)(COc2cc(-c3ccc(O)c(Cl)c3)cc3[nH]ncc23)C1 [Compound 3-22] | – | – | – | – | – | – | – | > 100 | < 0.1 | A (a value of 3 or above) | > 100 | > 100 | – | – | 31.6 to 200
